Experimental findings from US20220249599A1, “TREATMENT OF IMPLANTS WITH ENGINEERED ANTIMICROBIAL AMPHIPHILIC PEPTIDES” (priority 2018, published 2022) are described below.

Holding throughout (format): cell-based
Test [1] concerns Klebsiella pneumoniae ATCC BAA-1705 (KPC). The following applies: ATCC BAA-1705. The protocol:
(§1) Each peptide was formulated in PBS buffer prior to testing. Peptides of SEQ ID NO:5 and SEQ ID NO:8 were brought up in 100% DMSO with 0.002% polysorbate-80 at 1.28 mg/mL (40× the highest final test concentration of 32 mcg/mL). Final test concentration of DMSO was 2.5% in the assay at the first dilution for those two compounds.
(§2) Mueller Hinton II broth (MHB II; BD; Lot Nos. 6258541 and 7143896) was used for MIC testing of aerobic organisms. 0.002% polysorbate 80 (P80) was added to the test medium.
(§3) MIC values were determined using a broth microdilution procedure described by CLSI (1, 3). Automated liquid handlers (Multidrop 384, Labsystems, Helsinki, Finland; Biomek 2000 and Biomek FX, Beckman Coulter, Fullerton Calif.) were used to conduct serial dilutions and liquid transfers.
(§4) To prepare the drug mother plates, which would provide the serial peptide dilutions for the replicate daughter plates, the wells of columns 2-12 of standard 96-well microdilution plates (Costar 3795) were filled with 150 µl of the designated diluent for each row of peptide.
(§5) The test articles and comparator compounds ([…] at 40× the highest concentration to be tested) were dispensed into the appropriate wells in column 1. The Biomek 2000 was then used to make 2-fold serial dilutions in the mother plates from column 1 through column 11. The wells of Column 12 contained no drug and served as the organism growth control wells for the assay.
(§6) The daughter plates were loaded with 185 μL per well of MHB II using the Multidrop 384. The daughter plates were completed on the Biomek FX instrument which transferred 5 uL of peptide solution from each well of a mother plate to the corresponding well of each daughter plate in a single step. A standardized inoculum of each test organism was prepared per CLSI methods. The inoculum for each organism was dispensed into sterile reservoirs divided by length (Beckman Coulter), and the Biomek 2000 was used to inoculate the plates. Daughter plates were placed on the Biomek 2000 work surface in reverse orientation so that inoculation took place from low to high drug concentration.
(§7) Plates were stacked 3-4 high, covered with a lid on the top plate, placed in plastic bags, and incubated at 35° C. for 16 to 20 hrs. Following incubation, the microplates were removed from the incubator and viewed from the bottom using a plate viewer. […] The MIC was read and recorded as the lowest concentration of peptide that inhibited visible growth of the organism.

Test [2] relates to Staphylococcus aureus NRS382 (USA100; HA-MRSA). The following applies: USA100. How it is done:
as §1, §2, §3, §4, §5, §6, §7

Test [3] relates to Enterococcus faecium ATCC 51559 (VRE). The following applies: ATCC 51559. How it is done:
as §1, §2, §3, §4, §5, §6, §7

For test [4], the system named is Streptococcus agalactiae ATCC 13813. The protocol:
as §1, §2, §3, §4, §5, §6, §7

Test [5] deals with Escherichia coli ATCC 35218 (ESBL). The following applies: ATCC 35218. The protocol:
as §1, §2, §3, §4, §5, §6, §7

The test system of test [6] is Streptococcus pneumoniae ATCC 49619 (QC). Conditions: ATCC 49619. How it is done: as §1, §2, §3, §4, §5, §6, §7
Test [7] concerns Enterococcus faecalis ATCC 700802 (V583 VRE). Conditions: ATCC 700802. The protocol: as §1, §2, §3, §4, §5, §6, §7
Test [8] deals with Escherichia coli ATCC 25922 (QC). The following applies: ATCC 25922. How it is done:
as §1, §2, §3, §4, §5, §6, §7

Test [9] concerns Enterococcus faecalis ATCC 29212 (VSE; QC). Conditions: ATCC 29212. How it is done:
as §1, §2, §3, §4, §5, §6, §7

Test [10] concerns Pseudomonas aeruginosa ATCC 27853 (non-MDR; QC). The following applies: ATCC 27853. How it is done: as §1, §2, §3, §4, §5, §6, §7
The test system of test [11] is Escherichia coli ATCC BAA-2471 (NDM-1). The following applies: ATCC BAA-2471. How it is done:
as §1, §2, §3, §4, §5, §6, §7

The test system of test [12] is Pseudomonas aeruginosa ATCC BAA-2109 (MDR). The following applies: ATCC BAA-2109. How it is done:
as §1, §2, §3, §4, §5, §6, §7

Test [13] has as its system Streptococcus pyogenes ATCC 49399. The following applies: ATCC 49399. How it is done: as §1, §2, §3, §4, §5, §6, §7
In test [14] the test system is Staphylococcus aureus ATCC 29213 (MSSA; QC). Conditions: ATCC 29213. The protocol:
as §1, §2, §3, §4, §5, §6, §7

The subject of test [15] is Acinetobacter baumannii ATCC 19606 (non-MDR). Conditions: Acinetobacter baumannii ATCC 19606 (non-MDR). The protocol:
as §1, §2, §3, §4, §5, §6, §7

Test [16] concerns Staphylococcus aureus ATCC 43300 (MRSA). The following applies: ATCC 43300. The protocol: as §1, §2, §3, §4, §5, §6, §7

Ends that are not written are not given here.

With “RRWVRRVRRVWRRVVRVVRRWVRR-NH2 (C-terminus assumed) [SEQ ID NO: 1]”, the MIC (as a rule, the smallest concentration in the dilution series that meets the test's criterion for growth inhibition) turned out to be 8 µg/mL in [1]; 4 µg/mL in [2]; 2 µg/mL in test [3]; 8 µg/mL in test [4]; 8 µg/mL in [5]; 16 µg/mL in test [6]. The MIC was found to be 4 µg/mL in test [7]; 4 µg/mL in test [8]; 8 µg/mL in test [9]; 8 µg/mL in test [10]; 2 µg/mL in test [11]; 4 µg/mL in test [12]. In addition, the minimal inhibitory concentration (MIC) was 8 µg/mL in test [13], 8 µg/mL in test [14], 2 µg/mL in test [15] and 4 µg/mL in test [16].
